The text below walks through data of US9745265B2, “4-heteroaryl substituted benzoic acid compounds as RORgammaT inhibitors and uses thereof” (Merck Sharp & Dohme Corp., priority 2012, dated 2017).

Where two headings read alike, the source gives them in different places.

The target in the assay is human RORgammaT-Ligand Binding Domain (LBD) (Homo sapiens (Human), UniProt P51449). The assay can be described thus: RORγ-Ligand Binding Domain TR-FRET Assay (SRC1_2 co-activator peptide). The format is biochemical. Background: Time-resolved FRET reads energy transfer from a long-lived donor to a nearby acceptor.
human RORgammaT-Ligand Binding Domain (LBD), sequence (P51449 269-508): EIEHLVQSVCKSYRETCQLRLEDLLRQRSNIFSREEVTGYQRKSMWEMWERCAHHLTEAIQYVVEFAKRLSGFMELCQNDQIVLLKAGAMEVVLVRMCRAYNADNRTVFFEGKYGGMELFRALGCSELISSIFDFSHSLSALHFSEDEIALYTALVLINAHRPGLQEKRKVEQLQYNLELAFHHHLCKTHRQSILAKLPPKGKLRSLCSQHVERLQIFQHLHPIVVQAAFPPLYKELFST
The mark [1] stands for this setting: HIS-tagged RORγ-LBD 3 nM, biotinylated SRC1 LXXLL peptide 100 nM, incubated overnight at 4° C., 665/615 nm ratio.

As usually defined, the IC50 is the midpoint of a concentration-inhibition curve. As to `O=C(O)c1ccc(-c2nn(C(=O)c3c(Cl)cccc3C(F)(F)F)c3cc(N4CCOCC4)ccc23)cc1` [Example 4H, 4-(1-(2-chloro-6-(trifluoromethyl)benzoyl)-6-morpholino-1H-indazol-3-yl)benzoic acid], the IC50 under setting [1] was found to be 4320 nM. On the same count and under the same terms, to `Cc1cc(N2CCOCC2)cc(Cl)c1C(=O)n1nc(-c2ccc(C(=O)O)cc2F)c2ncccc21` [Example 40A, 4-(1-(2-chloro-6-methyl-4-morpholinobenzoyl)-1H-pyrazolo[4,3-b]pyridin-3-yl)-3-fluorobenzoic acid] belongs 6870 nM. `O=C(O)c1ccc(-c2nn(C(=O)c3cccc4ccoc34)c3ccccc23)c(F)c1` [Example 1S, 4-[1-(1-benzofuran-7-ylcarbonyl)-1H-indazol-3-yl]-3-fluorobenzoic acid] displayed an IC50 of 1480 nM.

For the compound `O=C1CCN(C(=O)c2ccc3c(-c4ccc(C(=O)O)cc4F)nn(C(=O)c4c(Cl)cccc4C(F)(F)F)c3c2)CC1` [Example 2C, 4-(1-(2-chloro-6-(trifluoromethyl)benzoyl)-6-(4-oxopiperidine-1-carbonyl)-1H-indazol-3-yl)-3-fluorobenzoic acid], the IC50 under setting [1] is 4 nM. As to `CS(=O)(=O)Nc1cc(-c2nn(C(=O)c3c(Cl)cccc3C(F)(F)F)c3cccnc23)ccc1C(=O)O` [Example 3B, 4-(1-(2-chloro-6-(trifluoromethyl)benzoyl)-1H-pyrazolo[4,3-b]pyridin-3-yl)-2-(methylsulfonamido)benzoic acid], the IC50 amounted to 1650 nM. `COCC(=O)n1nc(-c2ccc(C(=O)O)cc2F)c2ccccc21` [Example 1J, 3-fluoro-4-[1-(methoxy-acetyl)-1H-indazol-3-yl]benzoic acid]: the 50% inhibitory concentration (IC50) was determined as 5570 nM. On to `CN(c1ccc2c(-c3ccc(C(=O)O)cc3F)nn(C(=O)c3c(Cl)cccc3C(F)(F)F)c2c1)S(C)(=O)=O` [Example 5G, 4-(1-(2-chloro-6-(trifluoromethyl)benzoyl)-6-(N-methylmethylsulfonamido)-1H-indazol-3-yl)-3-fluorobenzoic acid], for which the IC50 under setting [1] turned out to be 1500 nM. Regarding `O=C(O)c1ccc(-c2nn(C(=O)c3c(Cl)cccc3OC3CC3)c3ccccc23)cc1` [Example 1H, 4-(1-(2-chloro-6-cyclypropoxybenzoyl)-1H-indazol-3-yl)benzoic acid], the IC50 turned out to be 39 nM. For the compound `CC(C)(C)OC(=O)Nc1cc2c(-c3ccc(C(=O)O)cc3F)cn(C(=O)c3c(Cl)cccc3C(F)(F)F)c2cn1` [Example 28A, 4-(5-(tert-butoxycarbonylamino)-1-(2-chloro-6-(trifluoromethyl)benzoyl)-1H-pyrrolo[2,3-c]pyridin-3-yl)-3-fluorobenzoic acid], the IC50 under setting [1] turned out to be 182 nM.

Compound `CC(C(=O)n1nc(-c2ccc(C(=O)O)cc2F)c2ccccc21)c1ccccc1` (stereo not drawn) [Example 1I, 3-fluoro-4-(1-(2-phenylpropanoyl)-1H-indazol-3-yl)benzoic acid] yielded an IC50 of 4320 nM. As to `CC(C)(C)OC(=O)Nc1cnc2c(-c3ccc(C(=O)O)cc3F)nn(C(=O)c3c(Cl)cccc3C(F)(F)F)c2c1` [Example 29A, 4-(6-(tert-butoxycarbonylamino)-1-(2-chloro-6-(trifluoromethyl)benzoyl)-1H-pyrazolo[4,3-b]pyridin-3-yl)-3-fluorobenzoic acid], the IC50 under setting [1] amounted to 191 nM. In the case of `CC(=O)Nc1cc(-c2nn(C(=O)c3c(Cl)cccc3C(F)(F)F)c3ccccc23)ccc1C(=O)O` [Example 3A, 2-acetamido-4-(1-(2-chloro-6-(trifluoromethyl)benzoyl)-1H-indazol-3-yl)benzoic acid], the IC50 under setting [1] worked out at 1470 nM. On the same count and under the same terms, to `Cc1cc(N(C)C)cc(Cl)c1C(=O)n1nc(-c2ccc(C(=O)O)cc2F)c2ncccc21` [Example 42A, 4-(1-(2-chloro-4-(dimethylamino)-6-methylbenzoyl)-1H-pyrazolo[4,3-b]pyridin-3-yl)-3-fluorobenzoic acid] belongs 2320 nM; to `CC(O)C#Cc1ccc2c(-c3ccc(C(=O)O)cc3F)nn(C(=O)c3c(Cl)cccc3C(F)(F)F)c2c1` (stereo not drawn) [Example 12A, 4-(1-(2-chloro-6-(trifluoromethyl)benzoyl)-6-(3-hydroxybut-1-ynyl)-1H-indazol-3-yl)-3-fluorobenzoic acid], 105 nM. For the compound `C[C@@H]1CN(C(=O)c2ccc3c(-c4ccc(C(=O)O)cc4F)nn(C(=O)c4c(Cl)cccc4C(F)(F)F)c3c2)C[C@H](C)O1` [Example 2B, 4-(1-(2-chloro-6-(trifluoromethyl)benzoyl)-6-((2S,6R)-2,6-dimethylmorpholine-4-carbonyl)-1H-indazol-3-yl)-3-fluorobenzoic acid], the half-inhibitory concentration (IC50) worked out at 15 nM.
